Results taken from patent publication US4879277A, “Antiviral compositions and methods” (The United States of America as represented by the …, priority 1987, dated 1989).
Entries after “also recorded” stand apart in the source; their conditions may differ.

Assays:
Clone TM 3 = assay: In vitro immune reactivity of normal helper/inducer TM3 cells (3H-uridine incorporation); format: cell-based, human; settings: 72 hours, tetanus toxoid, control (None) 12 ± 1
normal lymphocytes = tested on: normal lymphocytes
Description: (§1) 5×10^4 normal helper/inducer TM3 cells were stimulated with tetanus toxoid (0.6 limiting flocculation units/ml) plus 10^5 irradiated (4,000 rad) autologous peripheral blood mononuclear cells (PBM) as a source of accessory cells, and were cultured for 72 hours in the presence or absence of ddC. After exposure to uCi ^3 H-uridine for the final 5 hours, cells were harvested onto glass fibers and the incorporated radioactivity was counted. Data are expressed as the arithmetic mean counts per minute (×10^3)±1 standard deviation triplicate determinations. 10^6 PBM from a healthy individual were stimulated with phytohaemagglutinin (PHA) or pokeweek mitogen (PWM) and cultured for 72 hours, and treated as described above. ^3 H-uridine incorporation was used as an indicator of activiation of the responder cells.

[1] = tested on: Human T4^+ T lymphocytes (ATH8 cell line); assay: Anabolism of ddCyd by human T4+ T lymphocytes (intracellular concentration); format: in vitro ADME; settings: ATH8 cells exposed to 1 uM ddCyd for 24 hours
Description: * After incubation with ^3 Hlabelled 2',3dideoxycytidine (ddCyd) (1
exchange HPLC using radial compression columns of PartisilSAX equilibrate
phosphate, pH 3.8. ddCMP, 2',3dideoxycytidine-5monophosphate; ddCDP,

T cells = assay: Safety to T cells (studies of anabolic phosphorylation on human cells); format: cell-based; settings: comparable dosages
HIV [2] = assay: In vitro inhibition of infectivity and replication of HIV (p24 gag expression in H9 cells); format: cell-based
Description: The in vitro inhibition of the infectivity and replication of the HIV virus by ddC was also tested. The results are shown in FIG. 4-B. In this test, 10^5 H9 cells were exposed to various concentrations of ddC for 4 hours, then to 2 ug/ml polybrene for 30 minutes, pelleted, and then exposed to HIV (3,000 virus particles/cell) for 1.5 hours. Cells were resuspended in fresh complete medium and cultured in tubes at 37° C. in 5% CO2 -containing humidified air, and under conditions in which the cells were continuously exposed to ddC. On days 8 (left), 9 (middle), and 10 (right) in culture, the percentage of the target H9 cells expressing p24 gag protein of HIV was determined by indirect immunofluorescence microscopy by using anti-HIV p24 murine monocolonal antibody.

HIV [3] = assay: In vitro inhibition of the cytopathic effect of HIV in ATH8 cells; format: cell-based, human immunodeficiency virus
Source text: ATH8 cells (2×10^5) were pre-exposed to polybrene, and exposed to HIV in culture tubes (2,000 virus particles per cell), in the presence or absence of various concentrations of 2',3'-dideoxycytidine (ddC).
(§2) Of critical importance to the biological activation of the 2',3'-dideoxycytidine analogues inside human cells, both as antiviral and as antitumor agents, is their anabolic conversion to nucleotides inside cells. This cannot be assumed to occur because not all nucleoside analgoues can be adequately phosphorylated. The ability of HIV-infected human T-lymphoblasts to phosphorylate 2',3'-dideoxycytidine nucleoside (ddCyd) was tested. […] The incubation was terminated after 24 hours of drug exposure, and the TCA-soluble fraction of the cell lysate was resolved on HPLC, utilizing a radial compression column of Partisil-10 SAX with a gradient of ammonium phosphate.

T4 cells [4] = assay: T4 cell number and T4/T8 ratio in AIDS patients receiving ddC; format: in vivo, human; settings: for T4/T8 Ratio, Start Treatment / T4/mm3, Start Treatment: start of treatment
Source text: (§3) The efficacy of the application of 2',3'-dideoxycytidine in human use is shown graphically in Table I, where the absolute number of T4 cells and the T4/T8 ratio both show an increase in the T cells, indicating improvements of the immune system in patients with AIDS and its related conditions following therapy. […] It has also been shown that the circulating p24 antigen-level (a measure of viral replication in a patient's body) falls, following treatment with these compositions.
*Patients 1 and 2 received one dose of ddC every 8 hours, and patient 3
received one dose every 4 hours. Patient 1 received intravenous (IV)
dosing throughout; patient 2 received IV dosing for 21 days, followed by
oral dosing; patient 3 received IV dosing throughout. IV dosing was given
as 1 hour infusions. For oral dosing, the ddC was administered dissolved
in 0.1 ml of 0.9% sodium chloride solution and approximately 100 ml of
orange juice. Each patient received a 1 hour intravenous infusion (test
dose) of ddC two days prior to the initiating of dosing.

T4 cells [5] = assay: as above; format: in vivo, human; settings: patient 2, 0.03 mg/kg every 8 hours, IV then oral, 19 days receiving ddC
HIV p24 antigen = assay: Circulating HIV p24 antigen level in patients; format: in vivo, human immunodeficiency virus; settings: following treatment
Source text: as §3
levels in the blood after one to two weeks of treatment.

[6] = Toxicity observed in humans likely due to ddC administration; format: in vivo, human
Source text: Toxicity toward humans has been shown by the observation residing in Table II.
Toxicity Observed Which is
Likely to be Due to ddC Administration

PBM + PWM = assay: In vitro immune reactivity of PBM stimulated with PWM (3H-uridine incorporation); format: cell-based, human; settings: 72 hours, control (None) 24 ± 1
Description: as §1

PBM + PHA = assay: In vitro immune reactivity of PBM stimulated with PHA (3H-uridine incorporation); format: cell-based, human; settings: 72 hours, control (None) 82 ± 1
Description: as §1

cytidine deaminase = assay: Sensitivity to cytidine deaminase; format: in vitro ADME
HIV-infected ATH8 cells = tested on: HIV-infected ATH8 cells
Description: as §2

[7] = Example 7, concentration (uM) figure not given
[8] = AIDS patients, following therapy
[9] = patient 1, 0.25 mg/kg every 8 hours IV, 8 days receiving ddC
[10] = patient 1, 0.25 mg/kg every 8 hours IV
[11] = patient 2, 0.03 mg/kg every 8 hours, IV then oral
[12] = patient 3, 0.03 mg/kg every 4 hours IV, 12 days receiving ddC
[13] = patient 3, 0.03 mg/kg every 4 hours IV
[14] = 0.03 mg/kg 3×/day intravenous for 12 days followed by 0.3 mg/kg 3×/day orally

Nc1ccn([C@H]2CC[C@@H](CO)O2)c(=O)n1 [ddC, 2',3'-dideoxycytidine]
mean counts per minute (×10^3) ± 1 standard deviation, 3H-uridine incorporation (Clone TM 3; 1 uM ddC): 13 ± 1 counts per minute (×10^3) | mean counts per minute (×10^3) ± 1 standard deviation, 3H-uridine incorporation (Clone TM 3; 10 uM ddC): 8 ± 1 counts per minute (×10^3) | harm to cells (normal lymphocytes): not harmed by drug concentrations that exceed the virustatic dose | Intracellular concentration of ddCDP [1]: 1.20 µM | Intracellular concentration of ddCDPch [1]: 1.10 µM | Intracellular concentration of ddCMP [1]: 2.10 µM | Intracellular concentration of ddCTP [1]: 0.5 µM | Intracellular concentration of ddCyd [1]: 6.40 µM | safety to T cells (T cells): safe and non-lethal to T cells | inhibition of the infectivity of the virus (HIV [2]; 1 uM ddCyd): 100% | inhibition of the replication of the virus (HIV [2]; 1 uM ddCyd): 100% | inhibition of the viral p24 expression (HIV [2]; [7]): virtually complete inhibition | inhibition of the infectivity and replication of HIV (HIV [2]; H9 cells, p24 gag expression, days 8, 9, 10, 3,000 virus particles/cell, FIG. 4-B): almost complete inhibition | inhibition of the cytopathic effect of the virus (HIV [3]; 1 uM ddCyd): 100% | inhibition of the cytopathic effect of HIV (HIV [3]; ATH8 cells, day 5, 2,000 virus particles per cell, FIG. 4-A): almost complete inhibition | inhibition of the cytopathic effect of HIV (HIV [3]; [7]): virtually complete inhibition | T4/T8 ratio (change) (T4 cells [4]; [8]): increase | absolute number of T4 cells (T4 cells [4]; [8]): increase | T4/T8 Ratio, End Treatment (T4 cells [4]; [9]): 0.40 | T/mm3, End Treatment (T4 cells [4]; [9]): 530 /mm3 | T4/T8 Ratio, Start Treatment (T4 cells [4]; [10]): 0.20 | T4/mm3, Start Treatment (T4 cells [4]; [10]): 309 /mm3 | T4/T8 Ratio, Start Treatment (T4 cells [4]; [11]): 0.39 | T4/mm3, Start Treatment (T4 cells [4]; [11]): 260 /mm3 | T4/T8 Ratio, End Treatment (T4 cells [4]; [12]): 0.51 | T/mm3, End Treatment (T4 cells [4]; [12]): 307 /mm3 | T4/T8 Ratio, Start Treatment (T4 cells [4]; [13]): 0.26 | T4/mm3, Start Treatment (T4 cells [4]; [13]): 246 /mm3 | T4/T8 Ratio, End Treatment (T4 cells [5]): 0.47 | T/mm3, End Treatment (T4 cells [5]): 326 /mm3 | circulating p24 antigen-level (HIV p24 antigen): falls | Tolerated for up to, without significant toxicity in some patients [6, 14]: up to 40 days | minor toxicity in one patient [6, 14]: skin rash and oral ulcers | Tolerated for up to, without significant toxicity ([6]; 0.03 mg/kg 6×/day intravenous for 14 days, followed by 0.03 mg/kg 6×/day orally): up to 18 days | Toxicity ([6]; 0.25 mg/kg 3×/day intravenous): Thrombocytopenia; also recorded: skin rash | platelets, before drop ([6]; 0.25 mg/kg 3×/day intravenous, dropped from): 234,000 /mm^3 | platelets, after drop ([6]; 0.25 mg/kg 3×/day intravenous, dropped to): 68,000 /mm^3 | minor toxicities ([6]; humans): skin rash and aphthous stomatitis | toxic effect in humans ([6]; humans): bone marrow suppression (decreased platelets) | toxicity in some patients with prolonged administration ([6]; some patients, prolonged administration): small fiber peripheral neuropathy | mean counts per minute (×10^3) ± 1 standard deviation, 3H-uridine incorporation (PBM + PWM; 1 uM ddC): 23 ± 3 counts per minute (×10^3) | mean counts per minute (×10^3) ± 1 standard deviation, 3H-uridine incorporation (PBM + PWM; 10 uM ddC): 15 ± 3 counts per minute (×10^3) | mean counts per minute (×10^3) ± 1 standard deviation, 3H-uridine incorporation (PBM + PHA; 1 uM ddC): 101 ± 1 counts per minute (×10^3) | mean counts per minute (×10^3) ± 1 standard deviation, 3H-uridine incorporation (PBM + PHA; 10 uM ddC): 86 ± 3 counts per minute (×10^3) | sensitivity to cytidine deaminase (cytidine deaminase): not sensitive to cytidine deaminase | difference between uninfected and HIV-infected ATH8 cells in ability to phosphorylate ddCYD (HIV-infected ATH8 cells): No significant qualitative or quantitative differences

Nc1ccn([C@H]2C[C@H](O)[C@@H](CO)O2)c(=O)n1 [dCYD, reference compound]
reversal of the anti-HIV effect of ddCyd (HIV [3]; dCYD with ddCyd): reverses the anti-HIV effect of ddCyd | phosphorylation of ddCYD (HIV-infected ATH8 cells; dCYD (5 uM) added together with ddCYD): phosphorylation was blocked
